Measured values published in ChEMBL document CHEMBL1144249, “Identification of a novel class of androgen receptor antagonists based on the bicyclic-1H-isoindole-1,3(2H)-dione nucleus” (Bioorg Med Chem Lett, 2005).

Legend:
Androgen receptor [1] = target: T1, Androgen receptor (Homo sapiens, UniProt P10275, T878A); assay: Inhibition of [3H]-DHT binding to T877A androgen receptor of LNCaP cells
Androgen receptor [2] = target: T2, Androgen receptor (Homo sapiens, UniProt P10275); assay: Inhibition of [3H]DHT binding to androgen receptor of MDA-453 cells
T2 sequence (P10275 whole entry): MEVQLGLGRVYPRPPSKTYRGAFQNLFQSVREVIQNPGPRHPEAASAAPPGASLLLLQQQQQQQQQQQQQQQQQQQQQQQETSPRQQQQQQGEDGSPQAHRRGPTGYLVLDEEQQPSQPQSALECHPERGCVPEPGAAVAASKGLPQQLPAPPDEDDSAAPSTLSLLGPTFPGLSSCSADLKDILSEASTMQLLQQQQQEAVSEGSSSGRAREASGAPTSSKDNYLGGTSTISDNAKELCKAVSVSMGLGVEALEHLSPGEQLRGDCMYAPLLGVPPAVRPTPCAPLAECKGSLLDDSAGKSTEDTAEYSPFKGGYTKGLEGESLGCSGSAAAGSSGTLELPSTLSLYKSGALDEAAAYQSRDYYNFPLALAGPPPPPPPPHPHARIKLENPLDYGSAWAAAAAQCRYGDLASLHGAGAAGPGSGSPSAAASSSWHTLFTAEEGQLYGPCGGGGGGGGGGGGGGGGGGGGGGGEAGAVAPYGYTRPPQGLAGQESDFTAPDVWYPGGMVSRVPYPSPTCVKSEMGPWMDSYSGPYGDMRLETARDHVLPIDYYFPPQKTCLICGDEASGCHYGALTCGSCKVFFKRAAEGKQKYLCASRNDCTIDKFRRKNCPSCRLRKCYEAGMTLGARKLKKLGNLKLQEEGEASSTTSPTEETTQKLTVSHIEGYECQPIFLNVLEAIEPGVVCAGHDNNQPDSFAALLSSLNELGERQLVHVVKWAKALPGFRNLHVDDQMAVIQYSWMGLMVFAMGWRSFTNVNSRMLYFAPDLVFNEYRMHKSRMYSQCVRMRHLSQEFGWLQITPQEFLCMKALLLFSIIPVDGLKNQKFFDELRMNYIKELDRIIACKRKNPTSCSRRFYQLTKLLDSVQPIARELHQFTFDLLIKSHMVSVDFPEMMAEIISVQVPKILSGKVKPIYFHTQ

Androgen receptor [3] = target: T1, Androgen receptor
Description: Inhibition of T877A androgen receptor of human prostate cancer cells in reporter gene assay

Androgen receptor [4] = target: T2, Androgen receptor
Description: Inhibition of human androgen receptor of breast carcinoma MDA-453 cells in reporter gene assay

Androgen receptor [5] = target: T1, Androgen receptor; assay: Activation of T877A androgen receptor of human prostate cancer LNCap cells in reporter gene assay; assay type: functional, cell-based
Androgen receptor [6] = target: Androgen receptor (Homo sapiens, UniProt P10275, L702H/T878A); assay type: functional, cell-based; conditions: mdamb-pca2b
Chain of Androgen receptor (Homo sapiens, UniProt P10275, L702H/T878A) (P10275 whole entry L702H/T878A): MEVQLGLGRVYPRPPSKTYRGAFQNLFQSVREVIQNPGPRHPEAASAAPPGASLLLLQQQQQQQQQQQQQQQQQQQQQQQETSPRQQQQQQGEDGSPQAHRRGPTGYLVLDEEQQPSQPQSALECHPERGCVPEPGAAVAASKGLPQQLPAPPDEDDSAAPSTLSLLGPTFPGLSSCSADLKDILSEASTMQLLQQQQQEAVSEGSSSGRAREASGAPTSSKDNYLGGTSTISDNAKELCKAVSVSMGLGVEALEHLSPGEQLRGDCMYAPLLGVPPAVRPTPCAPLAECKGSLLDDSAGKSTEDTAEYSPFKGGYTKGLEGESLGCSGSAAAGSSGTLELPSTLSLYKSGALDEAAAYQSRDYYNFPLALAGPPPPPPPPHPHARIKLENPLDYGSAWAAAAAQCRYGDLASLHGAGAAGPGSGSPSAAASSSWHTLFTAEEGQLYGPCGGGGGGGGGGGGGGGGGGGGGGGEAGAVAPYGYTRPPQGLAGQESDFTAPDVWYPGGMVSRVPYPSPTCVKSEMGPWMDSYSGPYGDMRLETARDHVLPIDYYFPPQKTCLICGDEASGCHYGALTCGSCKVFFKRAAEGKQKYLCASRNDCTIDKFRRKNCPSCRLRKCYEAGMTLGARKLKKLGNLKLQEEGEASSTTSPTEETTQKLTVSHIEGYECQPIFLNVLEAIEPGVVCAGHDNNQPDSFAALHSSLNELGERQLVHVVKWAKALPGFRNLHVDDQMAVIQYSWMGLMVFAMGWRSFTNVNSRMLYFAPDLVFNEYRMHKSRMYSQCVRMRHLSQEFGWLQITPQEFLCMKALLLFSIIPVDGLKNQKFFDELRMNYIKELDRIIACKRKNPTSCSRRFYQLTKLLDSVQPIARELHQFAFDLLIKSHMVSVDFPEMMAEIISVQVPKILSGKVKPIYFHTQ

T1 sequence (P10275 whole entry T878A): as the sequence (P10275 whole entry L702H/T878A) above, with H702L counted along it

Structure (SMILES) | Ki (Androgen receptor [1]; lncap) [µM] | Ki (Androgen receptor [2]) [µM] | IC50 (Androgen receptor [3]) [µM] | Ki (Androgen receptor [1]) [µM] | IC50 (Androgen receptor [4]) [µM] | Agonist activity (qualitative) (Androgen receptor [5]) | IC50 (Androgen receptor [6]) | IC50 (Androgen receptor [5])
O=C1[C@@H]2C3CCC(C3)[C@@H]2C(=O)N1c1ccc([N+](=O)[O-])c(C(F)(F)F)c1 (stereo in doubt; 16) | 0.002 | – | – | – | – | – | – | –
O=C1[C@@H]2C3C=CC(C3)[C@@H]2C(=O)N1c1cccc(C(F)(F)F)c1 | – | 0.632 | 0.035 | 0.007 | 0.744 | – | – | –
O=C1[C@@H]2C3C=CC(C3)[C@@H]2C(=O)N1c1ccc2ccccc2c1 | – | 0.284 | 0.084 | 0.011 | 1.21 | – | – | –
Cc1ccc(N2C(=O)[C@@H]3C4C=CC(C4)[C@@H]3C2=O)cc1C | – | 0.4 | 0.01 | 0.0034 | 2.01 | – | – | –
O=C1[C@@H]2C3C=CC(C3)[C@@H]2C(=O)N1c1ccc(Br)c(C(F)(F)F)c1 | – | 0.046 | – | 0.0006 | 0.146 | Agonist | Agonist | –
O=C1[C@@H]2C3CCC(C3)[C@@H]2C(=O)N1c1ccc2ccccc2c1 | – | – | 0.084 | 0.011 | 1.2 | – | – | –
O=C1[C@@H]2C3C=CC(C3)[C@@H]2C(=O)N1c1ccc([N+](=O)[O-])cc1 | – | 0.192 | 0.03 | 0.012 | 0.664 | – | – | –
O=C1[C@@H]2C3C=CC(C3)[C@@H]2C(=O)N1c1cc(Cl)cc(Cl)c1 | – | 0.158 | 0.041 | 0.006 | 0.307 | – | – | –
Cc1cc(N2C(=O)[C@@H]3C4C=CC(C4)[C@@H]3C2=O)ccc1Br | – | 0.125 | – | 0.0036 | 0.22 | Agonist | Agonist | –
O=C1[C@@H]2C3CCC(C3)[C@@H]2C(=O)N1c1cccc(C(F)(F)F)c1 (stereo in doubt; 13) | – | – | 0.012 | 0.002 | 0.317 | – | – | –
O=C1[C@@H]2C3C=CC(C3)[C@@H]2C(=O)N1c1cc(C(F)(F)F)cc(C(F)(F)F)c1 | – | 0.401 | 0.072 | 0.024 | 1.75 | – | – | –
O=C1[C@@H]2C3C=CC(C3)[C@@H]2C(=O)N1c1ccc2cccnc2c1 | – | – | 0.052 | 0.013 | 1.04 | – | – | –
O=C1[C@@H]2C3C=CC(C3)[C@@H]2C(=O)N1c1ccc([N+](=O)[O-])c(C(F)(F)F)c1 | – | 0.055 | – | 0.005 | 0.119 | Agonist | Agonist | –
O=C1[C@@H]2C3CCC(C3)[C@@H]2C(=O)N1c1ccc([N+](=O)[O-])c(C(F)(F)F)c1 (stereo in doubt; 15) | – | 0.005 | – | 0.002 | 0.012 | Agonist | Agonist | –
O=C1[C@@H]2C3CCC(C3)[C@@H]2C(=O)N1c1cccc(C(F)(F)F)c1 (stereo in doubt; 12) | – | 0.319 | 0.007 | 0.0034 | 0.127 | – | – | –
O=C1[C@@H]2C3C=CC(C3)[C@@H]2C(=O)N1c1ccc([N+](=O)[O-])c2ccccc12 | – | 0.001 | – | 0.0005 | > 0.005 | Agonist | Agonist | –
O=C1[C@@H]2C3C=CC(C3)[C@@H]2C(=O)N1c1ccc(F)c(Cl)c1 | – | – | 0.033 | 0.002 | 0.517 | – | – | –
CC(C)(O)C(=O)Nc1ccc([N+](=O)[O-])c(C(F)(F)F)c1 [HYDROXYFLUTAMIDE] | – | – | – | – | – | – | Agonist | Agonist
O=C1[C@@H]2C3C=CC(C3)[C@@H]2C(=O)N1c1ccc(O)c2ncccc12 | – | 0.162 | 1.79 | 0.032 | 0.418 | – | – | –
